Legend:
human CSNK1D = molecular target: T1, human CSNK1D (Homo sapiens, UniProt P48730); assay: Whole Cell nBRET CSNK1D Binding Assay; conditions: living CHO cells stably expressing human CSNK1D tagged with nanoluciferase; NanoBret tracer 130 nM; 2 hours at 37 C
T1 construct: expressed in transfected cells

[1] = molecular target: T2, human recombinant GST cleaved CSNK1D (Homo sapiens, UniProt P48730); assay: Purified Enzyme Assay (ADP-Glo CSNK1D Kinase Assay); type: biochemical; conditions: 2 nM CSNK1D; peptide substrate 150 μM; ATP 20 μM; 45 minutes at room temperature
T2 construct: GST (cleaved yes); purchased University of Dundee clone DU 19064
Method in brief: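 GST-cleaved human recombinant CSNK1D phosphorylates peptide PLSRTL-pS-VASLPGL with ATP; compounds added in dose-response, 45 min at room temperature. ADP formed measured by ADP-Glo luminescence and converted to percent activity.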

T1 sequence (P48730 whole entry): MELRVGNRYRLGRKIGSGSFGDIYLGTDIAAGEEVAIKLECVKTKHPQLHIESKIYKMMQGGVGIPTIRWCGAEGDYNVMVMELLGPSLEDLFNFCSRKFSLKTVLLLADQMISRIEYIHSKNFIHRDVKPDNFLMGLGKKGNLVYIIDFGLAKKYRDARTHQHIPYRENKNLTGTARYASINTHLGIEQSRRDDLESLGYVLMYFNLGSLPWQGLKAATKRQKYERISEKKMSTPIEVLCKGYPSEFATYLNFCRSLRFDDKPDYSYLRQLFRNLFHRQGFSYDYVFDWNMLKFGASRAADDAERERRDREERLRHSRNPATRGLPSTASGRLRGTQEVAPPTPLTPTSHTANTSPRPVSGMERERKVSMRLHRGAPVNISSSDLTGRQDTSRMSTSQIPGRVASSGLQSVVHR
T2 sequence (P48730 whole entry): as above

## CC1CCn2nc(-c3ccc(F)cn3)c(-c3ccnc4[nH]ncc34)c2O1 (single isomer, unassigned) [Example 198, (*S)-2-(5-Fluoro-2-pyridyl)-5-methyl-3-(1H-pyrazolo[3,4-b]pyridin-4-yl)-6,7-dihydro-5H-pyrazolo[5,1-b][1,3]oxazine]
Human CSNK1D
  IC50: 59 nM
[1]
  IC50: 3 nM

## C[C@@H]1CCn2nc(-c3ccc(F)cn3)c(-c3ccnc4[nH]ncc34)c2O1 (single isomer, unassigned) [Example 199, (*R)-2-(5-Fluoro-2-pyridyl)-5-methyl-3-(1H-pyrazolo[3,4-b]pyridin-4-yl)-6,7-dihydro-5H-pyrazolo[5,1-b][1,3]oxazine]
Human CSNK1D
  IC50: 186 nM
[1]
  IC50: 12 nM

## Cc1cc(-c2c(-c3ccc(F)cn3)nn3c2OC(C)CC3)c2cn[nH]c2n1 (single isomer, unassigned) [Example 200, (*S)-2-(5-Fluoro-2-pyridyl)-5-methyl-3-(6-methyl-1H-pyrazolo[3,4-b]pyridin-4-yl)-6,7-dihydro-5H-pyrazolo[5,1-b][1,3]oxazine]
Human CSNK1D
  IC50: 56 nM
[1]
  IC50: 4 nM

## Cc1cc(-c2c(-c3ccc(F)cn3)nn3c2O[C@H](C)CC3)c2cn[nH]c2n1 (single isomer, unassigned) [Example 201, (*R)-2-(5-Fluoro-2-pyridyl)-5-methyl-3-(6-methyl-1H-pyrazolo[3,4-b]pyridin-4-yl)-6,7-dihydro-5H-pyrazolo[5,1-b][1,3]oxazine]
Human CSNK1D
  IC50: 246 nM
[1]
  IC50: 17 nM

## C[C@@H]1C[C@H](C)Oc2c(-c3ccnc4[nH]ncc34)c(-c3ccc(F)cn3)nn21 (single isomer, unassigned) [Example 202, (5*S,7*R)-2-(5-Fluoro-2-pyridyl)-5,7-dimethyl-3-(1H-pyrazolo[3,4-b]pyridin-4-yl)-6,7-dihydro-5H-pyrazolo[5,1-b][1,3]oxazine]
Human CSNK1D
  IC50: 198 nM
[1]
  IC50: 10 nM

## C[C@@H]1C[C@H](C)n2nc(-c3ccc(F)cn3)c(-c3ccnc4[nH]ncc34)c2O1 (single isomer, unassigned) [Example 203, (5*R,7*S)-2-(5-Fluoro-2-pyridyl)-5,7-dimethyl-3-(1H-pyrazolo[3,4-b]pyridin-4-yl)-6,7-dihydro-5H-pyrazolo[5,1-b][1,3]oxazine]
Human CSNK1D
  IC50: 2890 nM
[1]
  IC50: 34 nM

## C[C@@H]1C[C@@H](C)n2nc(-c3ccc(F)cn3)c(-c3ccnc4[nH]ncc34)c2O1 (single isomer, unassigned) [Example 204, (5*R,7*R)-2-(S-Fluoropyridin-2-yl)-5,7-dimethyl-3-(1H-pyrazolo[3,4-b]pyridin-4-yl)-6,7-dihydro-5H-pyrazolo[5,1-b][1,3]oxazine]
Human CSNK1D
  IC50: 305 nM
[1]
  IC50: 13 nM

## C[C@H]1C[C@H](C)n2nc(-c3ccc(F)cn3)c(-c3ccnc4[nH]ncc34)c2O1 (single isomer, unassigned) [Example 205, (5*S,7*S)-2-(5-Fluoropyridin-2-yl)-5,7-dimethyl-3-(1H-pyrazolo[3,4-b]pyridin-4-yl)-6,7-dihydro-5H-pyrazolo[5,1-b][1,3]oxazine]
Human CSNK1D
  IC50: 171 nM
[1]
  IC50: 5 nM

## Cc1cc(-c2c(-c3ccc(F)cn3)nn3c2O[C@@H](C)C[C@H]3C)c2cn[nH]c2n1 (single isomer, unassigned) [Example 206, (5*S,7*R)-2-(S-Fluoro-2-pyridyl)-5,7-dimethyl-3-(6-methyl-1H-pyrazolo[3,4-b]pyridin-4-yl)-6,7-dihydro-5H-pyrazolo[5,1-b][1,3]oxazine]
Human CSNK1D
  IC50: 249 nM
[1]
  IC50: 14 nM

## Cc1cc(-c2c(-c3ccc(F)cn3)nn3c2OC(C)CC3C)c2cn[nH]c2n1 (single isomer, unassigned) [Example 207, (5*R,7*S)-2-(5-Fluoro-2-pyridyl)-5,7-dimethyl-3-(6-methyl-H-pyrazolo[3,4-b]pyridin-4-yl)-6,7-dihydro-5H-pyrazolo[5,1-b][1,3]oxazine]
Human CSNK1D
  IC50: 1770 nM
[1]
  IC50: 51 nM

## Cc1cc(-c2c(-c3ccc(F)cn3)nn3c2O[C@H](C)C[C@H]3C)c2cn[nH]c2n1 (single isomer, unassigned) [Example 208, (5*R,7*R)-2-(5-Fluoro-2-pyridyl)-5,7-dimethyl-3-(6-methyl-1H-pyrazolo[3,4-b]pyridin-4-yl)-6,7-dihydro-5H-pyrazolo[5,1-b][1,3]oxazine]
Human CSNK1D
  IC50: 821 nM
[1]
  IC50: 26 nM

## Cc1cc(-c2c(-c3ccc(F)cn3)nn3c2O[C@@H](C)C[C@@H]3C)c2cn[nH]c2n1 (single isomer, unassigned) [Example 209, (5*S,7*S)-2-(5-Fluoro-2-pyridyl)-5,7-dimethyl-3-(6-methyl-1H-pyrazolo[3,4-b]pyridin-4-yl)-6,7-dihydro-5H-pyrazolo[5,1-b][1,3]oxazine]
Human CSNK1D
  IC50: 165 nM
[1]
  IC50: 8 nM

## Fc1ccc(-c2nn3c(c2-c2ccnc4[nH]ncc24)CC2(C3)CC2(F)F)cc1 (single isomer, unassigned) [Example 250, (*S)-1′,1′-Difluoro-2-(4-fluorophenyl)-3-(1H-pyrazolo[3,4-b]pyridin-4-yl)spiro[4,6-dihydropyrrolo[1,2-b]pyrazole-5,2′-cyclopropane]]
Human CSNK1D
  IC50: 5 nM
[1]
  IC50: 1 nM

## Fc1ccc(-c2nn3c(c2-c2ccnc4[nH]ncc24)CC2(C3)CC2(F)F)cc1 (single isomer, unassigned) [Example 251, (*R)-1′,1′-Difluoro-2-(4-fluorophenyl)-3-(1H-pyrazolo[3,4-b]pyridin-4-yl)spiro[4,6-dihydropyrrolo[1,2-b]pyrazole-5,2′-cyclopropane]]
Human CSNK1D
  IC50: 185 nM
[1]
  IC50: 26 nM

## Cc1cc(-c2c(-c3ccc(F)cc3)nn3c2C[C@@]2(C3)CC2(F)F)c2cn[nH]c2n1 (single isomer, unassigned) [Example 252, (*S)-1′,1′-Difluoro-2-(4-fluorophenyl)-3-(6-methyl-1H-pyrazolo[3,4-b]pyridin-4-yl)spiro[4,6-dihydropyrrolo[1,2-b]pyrazole-5,2′-cyclopropane]]
Human CSNK1D
  IC50: 3 nM
[1]
  IC50: 2 nM

## Cc1cc(-c2c(-c3ccc(F)cc3)nn3c2CC2(C3)CC2(F)F)c2cn[nH]c2n1 (single isomer, unassigned) [Example 253, (*R)-1′.1′-Difluoro-2-(4-fluorophenyl)-3-(6-methyl-1H-pyrazolo[3,4-b]pyridin-4-yl)spiro[4,6-dihydropyrrolo[1,2-b]pyrazole-5,2′-cyclopropane]]
Human CSNK1D
  IC50: 279 nM
[1]
  IC50: 21 nM

## Fc1ccc(-c2nn3c(c2-c2ccnc4[nH]ncc24)CC2(C3)CC2(F)F)nc1 (single isomer, unassigned) [Example 254, (*S)-1′1l′-Difluoro-2-(5-fluoro-2-pyridyl)-3-(1H-pyrazolo[3,4-b]pyridin-4-yl)spiro[4,6-dihydropyrrolo[1,2-b]pyrazole-5,2′-cyclopropane]]
Human CSNK1D
  IC50: 85 nM
[1]
  IC50: 4 nM

## Fc1ccc(-c2nn3c(c2-c2ccnc4[nH]ncc24)CC2(C3)CC2(F)F)nc1 (single isomer, unassigned) [Example 255, (*R)-1′.1′-Difluoro-2-(5-fluoro-2-pyridyl)-3-(1H-pyrazolo[3,4-b]pyridin-4-yl)spiro[4,6-dihydropyrrolo[1,2-b]pyrazole-5,2′-cyclopropane]]
Human CSNK1D
  IC50: 1950 nM
[1]
  IC50: 66 nM

## Fc1ccc(-c2nn3c(c2-c2ccnc4[nH]nc(Cl)c24)CC2(C3)CC2(F)F)nc1 (single isomer, unassigned) [Example 256, (*S)-3-(3-Chloro-1H-pyrazolo[3,4-b]pyridin-4-yl)-1′,1′-difluoro-2-(5-fluoro-2-pyridyl)spiro[4,6-dihydropyrrolo[1,2-b]pyrazole-5,2′-cyclopropane]]
Human CSNK1D
  IC50: 117 nM
[1]
  IC50: 12 nM

## Fc1ccc(-c2nn3c(c2-c2ccnc4[nH]nc(Cl)c24)CC2(C3)CC2(F)F)nc1 (single isomer, unassigned) [Example 257, (*R)-3-(3-Chloro-1H-pyrazolo[3,4-b]pyridin-4-yl)-1′,1′-difluoro-2-(5-fluoro-2-pyridyl)spiro[4,6-dihydropyrrolo[1,2-b]pyrazole-5,2′-cyclopropane]]
Human CSNK1D
  IC50: 10800 nM
[1]
  IC50: 197 nM

## Fc1ccc(-c2nn3c(c2-c2c(F)cnc4[nH]ncc24)CC2(C3)CC2(F)F)nc1 (single isomer, unassigned) [Example 258, (*S)-2,2-Difluoro-3′-(5-fluoro-1H-pyrazolo[3,4-b]pyridin-4-yl)-2′-(5-fluoropyridin-2-yl)-4′H,6′H-spiro[cyclopropane-1,5′-pyrrolo[1,2-b]pyrazole]]
Human CSNK1D
  IC50: 71 nM
[1]
  IC50: 6 nM

## Fc1ccc(-c2nn3c(c2-c2c(F)cnc4[nH]ncc24)CC2(C3)CC2(F)F)nc1 (single isomer, unassigned) [Example 259, (*R)-1′.1′-Difluoro-3-(5-fluoro-1H-pyrazolo[3,4-b]pyridin-4-yl)-2-(5-fluoro-2-pyridyl)spiro[4,6-dihydropyrrolo[1,2-b]pyrazole-5,2′-cyclopropane]]
Human CSNK1D
  IC50: 1920 nM
[1]
  IC50: 79 nM

## Cc1cc(-c2c(-c3ccc(F)cn3)nn3c2C[C@@]2(C3)CC2(F)F)c2cn[nH]c2n1 (single isomer, unassigned) [Example 260, (*S)-1′,1′-Difluoro-2-(5-fluoro-2-pyridyl)-3-(6-methyl-1H-pyrazolo[3,4-b]pyridin-4-yl)spiro[4,6-dihydropyrrolo[1,2-b]pyrazole-5,2′-cyclopropane]]
Human CSNK1D
  IC50: 107 nM
[1]
  IC50: 3 nM

## Cc1cc(-c2c(-c3ccc(F)cn3)nn3c2CC2(C3)CC2(F)F)c2cn[nH]c2n1 (single isomer, unassigned) [Example 261, (*R)-1′,1′-Difluoro-2-(5-fluoro-2-pyridyl)-3-(6-methyl-1H-pyrazolo[3,4-b]pyridin-4-yl)spiro[4,6-dihydropyrrolo[1,2-b]pyrazole-5,2′-cyclopropane]]
Human CSNK1D
  IC50: 2670 nM
[1]
  IC50: 63 nM

From US20230339970A1, “CASEIN KINASE 1 DELTA MODULATORS” (priority 2020, published 2023)
